Legend:
[1] = system: Carrageenan-Induced Edema in Rat Paws; assay: Anti-inflammatory effect on carrageenan-induced edema in rat paws (oral); format: in vivo, Wister male rats; conditions: for % Inhibition of Foot Edema: 1 hour before carrageenan, swelling at third hour, control taken as 100%; for Inhibition of carrageenan-induced edema (in words): oral, Wister male rats
Method: One hour after oral administration with these compounds, the rats were subcutaneously injected with 0.1 m of 1% carrageenan suspension on the plantar surface of the right hind foot. The swelling was measured at the third hour of carrageenan injection. Anti-inflammatory effect of the compounds was determined as percentage inhibition of the swelling, taking the swelling in the control groups as 100%.

[2] = Diuretic effect on rats: urinary volume during a 5 hour period after oral administration; format: in vivo, Wister male rats; conditions: 3 mg/kg oral; for Urine discharge (in words): Wister male rats; for Urinary volume relative to control: starved rats, 5 hour period after administration, control taken as 100%
Method: About 16 hours before oral administration with 3 mg/kg of the compounds, the rats were starved, with only water available. The urinary volume during a 5 hour period after administration was compared with that of the control groups, taking the urinary volume of the latter as 100%.

SMILES: CC1(C)CCCc2c1cc(CN)c(O)c2I.Cl [1-Iodo-3-aminomethyl-5,5-dimethyl-5,6,7,8-tetrahydro-2-naphthol Hydrochloride]
- % Inhibition of Foot Edema ([1]; 10 mg/kg oral): 44.1%
- % Inhibition of Foot Edema ([1]; 30 mg/kg oral): 66.3%
- Inhibition of carrageenan-induced edema (in words) [1]: had carrageenan-induced edema in their paws inhibited

SMILES: Cl.NCc1cc2c(c(I)c1O)CCC2 [4-Iodo-6-aminomethyl-5-indanol Hydrochloride]
- % Inhibition of Foot Edema ([1]; 10 mg/kg oral): 41.1%
- % Inhibition of Foot Edema ([1]; 30 mg/kg oral): 55.8%
- Inhibition of carrageenan-induced edema (in words) [1]: had carrageenan-induced edema in their paws inhibited
- Urine discharge (in words) [2]: discharged increased amounts of urine
- Urinary volume relative to control [2]: 138%

SMILES: CN(C)Cc1cc2c(c(I)c1O)CCCC2.Cl [1-Iodo-3-(N,N-dimethylaminomethyl)-5,6,7,8-tetrahydro-2-naphthol Hydrochloride]
- Urine discharge (in words) [2]: discharged increased amounts of urine
- Urinary volume relative to control [2]: 232%

SMILES: Br.NCc1c(O)c(I)cc2c1CCCC2 [1-Aminomethyl-3-iodo-5,6,7,8-tetrahydro-2-naphthol Hydrobromide]
- % Inhibition of Foot Edema ([1]; 10 mg/kg oral): 55.6%
- % Inhibition of Foot Edema ([1]; 30 mg/kg oral): 68.8%
- Inhibition of carrageenan-induced edema (in words) [1]: had carrageenan-induced edema in their paws inhibited
- Urine discharge (in words) [2]: discharged increased amounts of urine
- Urinary volume relative to control [2]: 142%

SMILES: CC1CCc2c1cc(CN)c(O)c2I.Cl (stereo not shown) [1-Methyl-4-iodo-6-aminomethyl-5-indanol hydrochloride]
- Urine discharge (in words) [2]: discharged increased amounts of urine
- Urinary volume relative to control [2]: 208%

SMILES: Br.NCc1cc2c(c(I)c1O)CCCC2 [1-Iodo-3-aminomethyl-5,6,7,8-tetrahydro-2-naphthol Hydrobromide]
- % Inhibition of Foot Edema ([1]; 10 mg/kg oral): 68.8%
- % Inhibition of Foot Edema ([1]; 30 mg/kg oral): 69.6%
- Inhibition of carrageenan-induced edema (in words) [1]: had carrageenan-induced edema in their paws inhibited
- Urine discharge (in words) [2]: discharged increased amounts of urine
- Urinary volume relative to control [2]: 226%

Source: patent US4254056A, “2-Aminomethyl phenol derivative and process for preparing thereof” (Ono Pharmaceutical Co., Ltd., priority 1977, dated 1981)
